Experimental data reported in ChEMBL document CHEMBL6074641, “Polypharmacological Drug Design Guided by Integrating Phenotypic and Restricted Fragment Docking Strategies” (J Med Chem, 2024).
Active and inactive are the calls of the source. The rule behind the calls is not given here.

Assays:
[1] = Metabolic stability in human liver microsomes assessed as clearance at 1 uM measured upto 60 mins in presence of NADPH and UDPGA by LC-MS/MS analysis; assay type: ADME, Microsome; conditions: 1 h
Microglia [2] = experiment: Anti-necroptosis activity in LPS/zVAD stimulated mouse primary microglia overexpressed with MAP4K4 assessed as reversal of mitochondrial swelling by TEM analysis; assay type: functional, cell-based
Mus musculus [3] = experiment: Anti-alzheimer activity against 5 month old APP/PS1 transgenic mouse model assessed as improved cognitive ability at 10 mg/kg, po administered 4 times per week for 4 weeks; assay type: functional, organism-based
Mus musculus [4] = experiment: Anti-alzheimer activity in 8 month old 3xTg mouse model assessed as reversal of transcriptomic changes in Pttg1 at 10 mg/kg, po; assay type: functional, organism-based
Microglia [5] = experiment: Anti-necroptosis activity in LPS/zVAD stimulated mouse primary microglia overexpressed with ALK assessed as reversal of translucent cytoplasm by TEM analysis; assay type: functional, cell-based
[6] = target: ALK tyrosine kinase receptor (Homo sapiens, UniProt Q9UM73, E1167A); experiment: Inhibition of ALK E1167A mutant (unknown origin) expressed in Escherichia coli BL21 (DE3)
Chain of ALK tyrosine kinase receptor (Q9UM73 19-1620 E1167A limits assumed): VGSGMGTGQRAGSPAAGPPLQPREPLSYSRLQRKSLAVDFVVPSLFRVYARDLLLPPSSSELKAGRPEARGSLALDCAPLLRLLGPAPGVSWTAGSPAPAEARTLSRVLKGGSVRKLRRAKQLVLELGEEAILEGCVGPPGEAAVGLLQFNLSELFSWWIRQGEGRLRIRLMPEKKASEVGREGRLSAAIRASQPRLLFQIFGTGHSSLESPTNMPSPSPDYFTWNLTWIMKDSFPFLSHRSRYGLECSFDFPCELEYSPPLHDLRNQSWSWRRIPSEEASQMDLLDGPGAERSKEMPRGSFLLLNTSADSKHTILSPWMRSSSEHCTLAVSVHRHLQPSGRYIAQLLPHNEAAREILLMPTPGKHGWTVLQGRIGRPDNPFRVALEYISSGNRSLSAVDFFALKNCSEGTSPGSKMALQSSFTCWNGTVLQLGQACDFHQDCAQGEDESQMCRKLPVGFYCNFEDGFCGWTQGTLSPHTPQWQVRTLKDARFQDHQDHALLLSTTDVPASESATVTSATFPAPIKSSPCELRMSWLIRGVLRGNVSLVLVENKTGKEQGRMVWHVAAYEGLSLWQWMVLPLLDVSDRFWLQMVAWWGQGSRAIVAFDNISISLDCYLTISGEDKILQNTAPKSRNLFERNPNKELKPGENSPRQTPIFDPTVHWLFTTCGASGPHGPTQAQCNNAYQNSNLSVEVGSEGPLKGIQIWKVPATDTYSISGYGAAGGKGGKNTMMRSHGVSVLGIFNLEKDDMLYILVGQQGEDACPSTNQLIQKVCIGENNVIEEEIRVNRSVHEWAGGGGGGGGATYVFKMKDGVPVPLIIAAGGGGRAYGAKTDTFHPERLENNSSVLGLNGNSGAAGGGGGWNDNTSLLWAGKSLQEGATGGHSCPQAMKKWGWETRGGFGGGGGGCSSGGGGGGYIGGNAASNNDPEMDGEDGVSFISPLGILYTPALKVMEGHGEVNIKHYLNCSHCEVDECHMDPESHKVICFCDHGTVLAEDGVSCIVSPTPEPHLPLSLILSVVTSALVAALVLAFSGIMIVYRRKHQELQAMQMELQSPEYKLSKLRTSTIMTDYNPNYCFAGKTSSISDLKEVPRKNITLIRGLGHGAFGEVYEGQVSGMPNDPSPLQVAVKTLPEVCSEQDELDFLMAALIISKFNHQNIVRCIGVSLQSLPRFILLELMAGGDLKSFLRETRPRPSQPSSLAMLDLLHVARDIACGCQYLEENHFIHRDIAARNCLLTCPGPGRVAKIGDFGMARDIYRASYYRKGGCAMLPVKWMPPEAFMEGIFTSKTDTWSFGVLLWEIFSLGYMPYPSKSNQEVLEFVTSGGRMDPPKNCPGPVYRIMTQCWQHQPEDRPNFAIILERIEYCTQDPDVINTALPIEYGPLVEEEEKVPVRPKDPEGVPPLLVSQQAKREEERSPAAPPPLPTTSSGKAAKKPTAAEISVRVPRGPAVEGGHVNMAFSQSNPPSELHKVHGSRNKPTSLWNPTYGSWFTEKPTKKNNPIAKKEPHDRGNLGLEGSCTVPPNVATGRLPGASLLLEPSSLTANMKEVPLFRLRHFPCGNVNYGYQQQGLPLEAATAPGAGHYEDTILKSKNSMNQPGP

Microglia [7] = experiment: Anti-necroptosis activity in LPS/zVAD stimulated mouse primary microglia overexpressed with RIPK1 assessed as reversal of translucent cytoplasm by TEM analysis; assay type: functional, cell-based

CLH [1]: 0.007 mL/min/mg
IC50 [6]: 4.43 µM
Compound: Cc1cc(F)cc(Nc2ncc(Nc3ccc(SC(F)(F)F)cc3)cc2C(N)=O)c1
Activity (Microglia [2]): inactive
Activity (Mus musculus [3]): Active
Activity (Mus musculus [4]): Active
Activity (Microglia [5]): inactive
Activity (Microglia [7]): inactive
